# Test results reported in publication PMC8224802 (Pharmaceutics, 2021).
# Read-outs that look alike come from different tables or passages of the source.
# Tests used:
# [1] = In vitro microsomal metabolism of RPG (disappearance) in HLM; type: in vitro ADME, human; details: for Km: human, human liver microsomes
# Description: At 0, 30, and 60 min after starting the metabolic reaction, a 50 μL aliquot of the incubation mixture was sampled and transferred to a clean 1.5-mL microcentrifuge tube containing 150 μL of ice-cold acetonitrile to terminate the metabolic reaction.
# The intrinsic metabolic clearance (CLint) was calculated as Vmax/Km. […] Max and Min are the initial and final Y values, respectively, and the power P represents the Hill coefficient. […] Vmax and Km are the same as those defined in Equation (2). The parameter α is indicative of the inhibition type. The mixed model is a general equation that includes competitive, uncompetitive, and noncompetitive inhibition as special cases. When α = 1, the mixed model is identical to a noncompetitive inhibition. When α is very large (α→∞) or very small (α→0), the mixed model becomes identical to competitive inhibition or uncompetitive inhibition, respectively.
# [2] = tested on: microsomal metabolism of RPG in HLM; experiment: In vitro inhibition of RPG metabolism by QCT in HLM; type: in vitro ADME, human; details: HLM
# Description: The intrinsic metabolic clearance (CLint) was calculated as Vmax/Km. […] The parameter α is indicative of the inhibition type. The mixed model is a general equation that includes competitive, uncompetitive, and noncompetitive inhibition as special cases. When α = 1, the mixed model is identical to a noncompetitive inhibition. When α is very large (α→∞) or very small (α→0), the mixed model becomes identical to competitive inhibition or uncompetitive inhibition, respectively.
smiles,measurement,setting,value
"CCOc1cc(CC(=O)N[C@@H](CC(C)C)c2ccccc2N2CCCCC2)ccc1C(=O)O [RPG, Repaglinide]","Vmax, metabolism of RPG","[1]; HLM 0.3 mg/mL, 1–500 μM RPG, Michaelis–Menten fit",2850 ± 417 pmol/min/mg protein
same,Km,"[1]; Km, metabolism of RPG, HLM 0.3 mg/mL, 1–500 μM RPG, Michaelis–Menten fit",27 to 69.4 µM
same,Km,"[1]; Table S3, source Figure 3, read-out: Km used for estimation of R",27 µM
same,Km of RPG metabolism in the Ki estimation study,[2]; QCT 0 μM,23 µM
same,Km of RPG metabolism in the Ki estimation study,[2]; QCT 200 μM,111 µM
